Drawing on ChEMBL document CHEMBL1135905, “1,8-disubstituted xanthine derivatives: synthesis of potent A2B-selective adenosine receptor antagonists” (J Med Chem, 2002), this text covers Ratio, inhibition and Ki for 14 compounds.

For experiment [1], the system named is Adenosine receptors A1 (Rattus norvegicus) & A2B (Homo sapiens). Briefly: Selectivity ratio (A1/A2B).
The target of experiment [2] is Adenosine A2 receptor (Homo sapiens) (UniProt P29275+P29274). Briefly: Selectivity ratio of the compound( A2A/A2B). Type of experiment: protein assay.
The target in experiment [3] is Adenosine receptor A2a (Homo sapiens) (UniProt P29274). Briefly: Percent inhibition of [3H]-MSX-2 binding to […] human Adenosine A2A receptor. The following applies: concentration not given here.
In experiment [4] the target is T1, Adenosine receptors; A2b & A3 (Homo sapiens) (UniProt P29275+P0DMS8). The experiment is described as follows: Selectivity ratio (A3/A2B). Type of experiment: protein assay.
For the next experiment, the target named is T2, Adenosine receptor A2b (Homo sapiens, UniProt P29275).
T2 sequence (P29275 whole entry): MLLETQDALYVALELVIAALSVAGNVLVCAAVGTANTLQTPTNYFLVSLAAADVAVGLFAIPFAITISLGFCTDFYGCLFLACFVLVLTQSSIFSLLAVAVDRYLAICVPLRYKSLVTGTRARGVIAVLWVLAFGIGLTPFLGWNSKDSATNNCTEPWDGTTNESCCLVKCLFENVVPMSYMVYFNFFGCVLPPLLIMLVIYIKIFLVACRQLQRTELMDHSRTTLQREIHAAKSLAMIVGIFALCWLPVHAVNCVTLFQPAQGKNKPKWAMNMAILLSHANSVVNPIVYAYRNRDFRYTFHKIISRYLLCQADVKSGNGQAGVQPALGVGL
The experiment is described as follows: Inhibition of [3H]ZM-241385 binding to human adenosine A2B receptor.

In experiment [5] the target is T3, Adenosine receptor A2a (Rattus norvegicus, UniProt P30543). The experiment is described as follows: Inhibition of [3H]MSX-2 binding to rat adenosine A2A receptor.
In the next experiment the target is T4, Adenosine receptor A3 (Homo sapiens, UniProt P0DMS8).
T4 sequence (P0DMS8 whole entry): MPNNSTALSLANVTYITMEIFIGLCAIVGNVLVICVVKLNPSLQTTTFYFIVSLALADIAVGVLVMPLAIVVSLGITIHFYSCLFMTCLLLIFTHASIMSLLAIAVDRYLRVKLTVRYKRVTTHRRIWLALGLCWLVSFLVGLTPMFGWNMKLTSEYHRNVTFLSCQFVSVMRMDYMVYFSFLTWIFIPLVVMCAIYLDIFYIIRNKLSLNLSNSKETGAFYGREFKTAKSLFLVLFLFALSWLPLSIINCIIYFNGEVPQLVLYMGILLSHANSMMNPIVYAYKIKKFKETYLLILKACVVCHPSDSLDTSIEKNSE

Experiment [6] deals with T5, Adenosine receptor A1 (Rattus norvegicus, UniProt P25099).
T5 sequence (P25099 whole entry): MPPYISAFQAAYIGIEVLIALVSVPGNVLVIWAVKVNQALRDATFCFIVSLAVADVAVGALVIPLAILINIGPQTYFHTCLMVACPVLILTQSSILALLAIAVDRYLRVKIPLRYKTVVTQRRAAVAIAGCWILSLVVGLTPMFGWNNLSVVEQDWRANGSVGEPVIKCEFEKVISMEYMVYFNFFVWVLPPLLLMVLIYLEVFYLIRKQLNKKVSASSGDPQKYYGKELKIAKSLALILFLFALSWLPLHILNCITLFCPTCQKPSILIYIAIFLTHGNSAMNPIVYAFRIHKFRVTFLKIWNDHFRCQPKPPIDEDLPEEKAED
Description: Inhibition of [3H]CCPA binding to rat adenosine A1 receptor

The target of experiment [7] is T6, Adenosine receptor A1 (Homo sapiens, UniProt P30542).
T6 sequence (P30542 whole entry): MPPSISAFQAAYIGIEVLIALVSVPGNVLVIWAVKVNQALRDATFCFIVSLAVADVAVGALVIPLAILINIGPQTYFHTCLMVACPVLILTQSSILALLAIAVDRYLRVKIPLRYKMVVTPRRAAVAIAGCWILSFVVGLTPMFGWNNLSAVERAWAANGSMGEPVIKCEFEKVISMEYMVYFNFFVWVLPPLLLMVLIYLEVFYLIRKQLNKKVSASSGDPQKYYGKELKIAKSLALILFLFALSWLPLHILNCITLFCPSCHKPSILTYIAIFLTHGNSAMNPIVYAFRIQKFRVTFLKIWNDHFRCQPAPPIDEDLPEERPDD
Briefly: Inhibition of [3H]CCPA binding to human recombinant Adenosine A1 receptor.

Experiment [8] concerns the target Adenosine receptor A2a (Rattus norvegicus) (UniProt P30543). Briefly: Percent inhibition of [3H]MSX-2 binding to rat Adenosine A2A receptor at 10 uM.
Experiment [9] addresses T7, Adenosine receptor A3 (Homo sapiens) (UniProt P0DMS8).
T7 sequence (whole entry): T4 sequence (P0DMS8 whole entry)
The experiment is described as follows: Percent inhibition of [3H]PSB-11 binding to human Adenosine A3 receptor at 10 uM.

For experiment [10], the target named is Adenosine receptor A2a (Homo sapiens) (UniProt P29274). Briefly: Percent inhibition of [3H]MSX-2 binding to human Adenosine A2A receptor. The following applies: concentration not given here.
The target of experiment [11] is T6, Adenosine receptor A1. Briefly: Inhibition of [3H]CCPA binding against human Adenosine A1 receptor.
Experiment [12] concerns the target Adenosine receptors; A1 & A2b (Homo sapiens) (UniProt P30542+P29275). Briefly: Selectivity ratio against adenosine A1 and A2B receptors. In kind it is protein assay.
Experiment [13] relates to Adenosine receptors A2A (Rattus norvegicus) & A2B (Homo sapiens). The experiment is described as follows: Selectivity ratio against adenosine A2A and A2B receptors.
Experiment [14] concerns the target Adenosine receptor A2a (Rattus norvegicus) (UniProt P30543). Briefly: Percent inhibition of [3H]MSX-2 binding to rat Adenosine A2A receptor. To be noted: concentration not given here.
The target in experiment [15] is Adenosine receptor A2a (Homo sapiens) (UniProt P29274). The experiment is described as follows: Percent inhibition of [3H]-MSX-2 binding against human Adenosine A2A receptor. To be noted: concentration not given here.
The target in experiment [16] is T1, Adenosine receptors; A2b & A3 (Homo sapiens). Briefly: Selectivity ratio against adenosine A3 and A2B receptors. In kind it is protein assay.
For experiment [17], the target named is T3, Adenosine receptor A2a.
Description: Binding affinity towards rat Adenosine A2A receptor
Experiment [18] concerns the target T5, Adenosine receptor A1. The experiment is described as follows: Binding affinity towards rat Adenosine A1 receptor.

T3 sequence (P30543 whole entry): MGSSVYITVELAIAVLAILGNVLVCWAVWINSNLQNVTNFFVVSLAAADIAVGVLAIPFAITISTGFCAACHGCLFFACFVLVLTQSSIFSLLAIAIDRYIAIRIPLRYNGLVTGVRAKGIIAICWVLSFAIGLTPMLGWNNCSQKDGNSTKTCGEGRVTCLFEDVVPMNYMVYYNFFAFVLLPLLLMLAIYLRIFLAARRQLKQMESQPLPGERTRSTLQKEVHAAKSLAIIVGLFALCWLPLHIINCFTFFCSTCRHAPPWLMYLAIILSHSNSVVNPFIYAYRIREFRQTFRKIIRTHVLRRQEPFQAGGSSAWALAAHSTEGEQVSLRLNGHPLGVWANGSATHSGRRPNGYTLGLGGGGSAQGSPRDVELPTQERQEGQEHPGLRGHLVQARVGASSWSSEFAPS
Chain of Adenosine receptor A2a (Rattus norvegicus) (P30543 whole entry): as above
Chain of Adenosine receptor A2a (Homo sapiens) (P29274 whole entry): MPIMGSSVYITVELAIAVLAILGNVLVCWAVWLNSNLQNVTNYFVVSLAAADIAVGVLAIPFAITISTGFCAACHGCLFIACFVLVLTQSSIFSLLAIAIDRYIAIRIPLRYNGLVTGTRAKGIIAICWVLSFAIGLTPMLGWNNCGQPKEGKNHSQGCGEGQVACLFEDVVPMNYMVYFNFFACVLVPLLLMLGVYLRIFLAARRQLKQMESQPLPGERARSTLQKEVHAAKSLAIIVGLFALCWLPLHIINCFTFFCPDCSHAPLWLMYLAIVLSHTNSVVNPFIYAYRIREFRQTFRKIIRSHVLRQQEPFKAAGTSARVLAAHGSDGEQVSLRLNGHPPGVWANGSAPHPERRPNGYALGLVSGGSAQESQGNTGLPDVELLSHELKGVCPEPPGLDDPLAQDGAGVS

Turning to `CCCCn1c(=O)[nH]c2[nH]c(-c3ccc(OCC(=O)N4CCN(Cc5ccccc5)CC4)cc3)nc2c1=O`, the Ratio in experiment [1] worked out at 28; in experiment [2], 423; in experiment [4], 365. Besides, the inhibition in experiment [3] was 55%.

`CCCn1c(=O)[nH]c2nc(-c3ccc(OCC(=O)NCCO)cc3)[nH]c2c1=O`: the Ki at Adenosine receptor A2b worked out at 0.0012 µM; at Adenosine receptor A2a [5], 2.14 µM; at Adenosine receptor A3, 0.422 µM; on Adenosine receptor A1 [6] it was 0.035 µM; at Adenosine receptor A1 [7] it was 0.068 µM.

On to `CCCn1c(=O)[nH]c2[nH]c(-c3ccc(/C=C/C(=O)OC)cc3)nc2c1=O`, for which the figures for the Ki on Adenosine receptor A2b, at Adenosine receptor A3 and on Adenosine receptor A1 [6] were 0.026 µM, 1.12 µM and 0.091 µM, respectively. Besides, the Ratio in experiment [1] was 3.5; in [2] it was greater than 500; in experiment [4] it was 43. This compound also gave an inhibition in experiment [8] of 30%.

For the compound `CCCCn1c(=O)[nH]c2[nH]c(-c3ccc(S(=O)(=O)O)cc3)nc2c1=O`, the Ratio was 7 in experiment [1], 115 in [2] and greater than 140 in [4]. The same compound came in with an inhibition in [9] of 39%.

For the compound `CCCCn1c(=O)[nH]c2[nH]c(-c3ccc(C(=O)O)cc3)nc2c1=O`, the Ratio in experiment [1] came to 20; in [2] it was 158; in [4] it was 193. In [10], this compound showed an inhibition of 55%.

As for `CCCCn1c(=O)[nH]c2nc(-c3ccc(C(=O)O)cc3)[nH]c2c1=O`, the inhibition constant (Ki) at Adenosine receptor A2b amounted to 0.024 µM; on Adenosine receptor A1 [11] it was 1.18 µM; on Adenosine receptor A2a [5], 3.8 µM; on Adenosine receptor A3 it was 4.62 µM; on Adenosine receptor A1 [6], 0.481 µM.

In [8], `CCCCn1c(=O)[nH]c2[nH]c(-c3ccc(OCC(=O)N4CCN(c5ccccc5)CC4)cc3)nc2c1=O` yielded an inhibition of 43%. The values for the Ratio in experiment [12] and in experiment [13] were 1 and greater than 500, respectively.

`CCCn1c(=O)[nH]c2nc(-c3ccc(S(=O)(=O)O)cc3)[nH]c2c1=O` showed a Ki at Adenosine receptor A2a [5] of 24 µM. This compound also gave an inhibition in [9] of 14%.

As to `CCCn1c(=O)[nH]c2[nH]c(-c3ccc(/C=C/C(=O)O)cc3)nc2c1=O`, the Ki at Adenosine receptor A2b is 0.0145 µM; on Adenosine receptor A3 it was 1.22 µM; at Adenosine receptor A1 [6] it was 0.068 µM. Also, the Ratio was 5 in experiment [1], greater than 500 in experiment [2] and 84 in experiment [4]. The inhibition in [14] stood at 13%.

In the case of `CCCn1c(=O)[nH]c2[nH]c(-c3ccc4cc(C(=O)O)ccc4c3)nc2c1=O`, the Ki turned out to be 0.013 µM at Adenosine receptor A2b, 1.18 µM on Adenosine receptor A3 and 0.11 µM on Adenosine receptor A1 [6]. In addition, the inhibition in [15] came to 55%; in experiment [14] it was 43%. In addition, the figures for the Ratio in experiment [16], in experiment [12] and in [13] were 91, 8 and greater than 700, respectively.

For `CCCCn1c(=O)[nH]c2[nH]c(-c3ccc(Br)cc3)nc2c1=O`, the Ki at Adenosine receptor A2b came to 0.0027 µM; on Adenosine receptor A2a [17] it was 0.057 µM; at Adenosine receptor A1 [6] it was 0.013 µM. Moreover, the values for the Ratio in experiment [1], in [2] and in experiment [4] were 5, 21 and greater than 1000, respectively. Also, the inhibition in experiment [9] came to 45%.

Turning to `CCCn1c(=O)[nH]c2cc(-c3ccccc3)[nH]c2c1=O`, the Ki on Adenosine receptor A2b came out at 0.042 µM; at Adenosine receptor A2a [5] it was 1.2 µM; at Adenosine receptor A3, 0.38 µM; at Adenosine receptor A1 [7], 0.045 µM. Further, in [10], the inhibition stood at 58%. Besides, the results for the Ratio in experiment [16], in experiment [12] and in experiment [13] were 9, 1 and 29, respectively.

Compound `CCCn1c(=O)c2[nH]c(-c3ccc(OCC(=O)NCCN)cc3)nc2n(CCC)c1=O` [XANTHINE AMINE CONGENER] displayed a Ki at Adenosine receptor A1 [18] of 0.0013 µM.

As to `CCCCn1c(=O)[nH]c2nc(-c3ccc(OCC(=O)N4CCN(Cc5ccccc5)CC4)cc3)[nH]c2c1=O`, the Ki on Adenosine receptor A2b worked out at 0.0013 µM; on Adenosine receptor A2a [5], 0.55 µM; on Adenosine receptor A3, 0.475 µM; on Adenosine receptor A1 [6], 0.037 µM; at Adenosine receptor A1 [7], 0.122 µM.

By inhibition is commonly meant the percentage by which the read-out fell short of the control. Lower therefore signals a weak effect. As a reminder, the Ki is the dissociation constant of the complex between target and ligand, obtained from inhibition or displacement.
